From patent publication US20210255193A1, “LYSINE REACTIVE PROBES AND USES THEREOF” (The Scripps Research Institute, priority 2017, published 2021) come the findings set out here.

Assay [1] has as its target T1, PNPO (Homo sapiens, UniProt Q9NVS9).
T1 construct: Flag; expressed in transfected cells; host or cells: HEK 293T, transient transfection, soluble lysate
T1 sequence (Q9NVS9 1-261): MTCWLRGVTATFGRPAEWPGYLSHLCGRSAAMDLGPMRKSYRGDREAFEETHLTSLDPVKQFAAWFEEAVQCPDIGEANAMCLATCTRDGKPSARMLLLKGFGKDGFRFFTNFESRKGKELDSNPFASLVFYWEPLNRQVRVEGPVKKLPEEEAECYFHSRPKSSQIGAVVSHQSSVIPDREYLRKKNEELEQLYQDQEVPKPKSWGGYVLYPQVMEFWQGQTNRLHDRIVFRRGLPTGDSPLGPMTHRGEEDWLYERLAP
The assay can be described thus: PNPO functional assay. It counts as biochemical. The following applies: substrate assay, WT; read-out: IC50, blockade of PNPO catalytic activity. Here is the method:
(§1) PNPO functional assay. 80 μl of soluble proteome (total protein concentration: 1 mg ml^−1) from HEK 293T cells expressing PNPO (WT or K100R mutant) or mock transfected cells (empty vector; negative control) were added into a clear bottom 384 well plate. For compound treatments, 1 μl of the inhibitor (80× solution in DMSO) or 1 μl of DMSO (positive control) were added and the reactions were incubated for 1 h at room temperature. 10 μl of 0.1 M Tris in PBS were added and the reaction was started by addition of 10 μl 5 mM pyridoxine phosphate (PNP) in water (PNP was prepared as described in Argoudelis, C. J., “Preparation of crystalline pyridoxine 5′-phosphate and some of its properties,” J. Agr. Food Chem. 34, 995-998 (1986)). The absorbance of the Schiff Base between pyridoxal phosphate and Tris was measured at 388 nm every minute for 30 min.
(§2) Calculation of relative activity or percent inhibition. For PNPO, PFKP, NUDT2 and G6PD, the slope of the linear regression of the linear portion of the absorbance or fluorescence over time was used as measure their activity. Apparent activity was calculated relative to the WT. Percent inhibition was calculated relative to the positive and negative control and used to calculate IC50 values by nonlinear regression analysis from a dose-response curve generated using GraphPad Prism 7.

In assay [2] the target is T2, PNPO (Homo sapiens, UniProt Q9NVS9, K100R).
T2 construct: Flag; expressed in transfected cells; host or cells: HEK 293T, transient transfection, soluble lysate
T2 sequence (Q9NVS9 whole entry K100R): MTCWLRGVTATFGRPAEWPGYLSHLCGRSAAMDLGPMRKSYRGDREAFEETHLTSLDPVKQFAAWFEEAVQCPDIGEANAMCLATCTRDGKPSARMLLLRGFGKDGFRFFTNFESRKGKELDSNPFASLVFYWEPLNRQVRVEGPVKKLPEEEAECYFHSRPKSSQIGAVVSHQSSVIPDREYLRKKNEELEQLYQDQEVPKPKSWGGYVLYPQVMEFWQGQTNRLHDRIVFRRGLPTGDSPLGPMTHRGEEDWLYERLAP
The assay can be described thus: PNPO functional assay. Type of assay: biochemical. Conditions: K100R mutant. As to the method: as §1, §2

Assay [3] has as its target T1, PNPO. The assay can be described thus: competitive gel-based ABPP, apparent IC50. It counts as binding. Conditions: read-out: apparent IC50, blockade of probe labeling of K100 in PNPO. Here is the method:
(§3) Recombinant expression of proteins by transient transfection. HEK 293T cells were grown to 50% confluency in 10 ml DMEM supplemented with 10% fetal bovine serum (FBS), penicillin, streptomycin and glutamine in 10 cm tissue culture dishes. 3 μg of DNA was diluted in 500 μL DMEM and 30 μL of PEI (MW 40,000, 1 mg ml^−1, Polysciences) were added. The mixture was incubated at room temperature for 30 min and added dropwise to the cells. Cells were grown for 48 h at 37° C. with 5% CO2. Cells were washed with cold PBS, scraped with cold PBS and cell pellets were isolated by centrifugation (1,400 g, 3 min, 4° C.), and stored at −80° C. until use. Cell pellets were resuspended in PBS, lysed by sonication and fractionated (100,000 g, 45 min) to yield soluble and membrane fractions. The soluble fraction was adjusted to a final protein concentration of 1 mg ml^−1 for gel-based ABPP experiments.
(§4) Competitive gel-based ABPP and apparent IC50 values. 50 μl of soluble proteome (1 mg ml^−1) expressing the indicated protein were treated with fragment electrophiles (1 μl of 50× stock solution in DMSO) at ambient temperature for 1 h. The indicated probe (fluorophore or alkyne-containing, 1 μl of a 500 μM solution, final concentration=10 μM) was then added and allowed to react for an additional 1 h. CuAAC and in-gel fluorescence analysis were performed as described above. For quantification of inhibition and apparent IC50 determination, the percentage of labeling was determined by quantifying the integrated optical intensity of the bands using ImageLab 5.2.1 software (BioRad). Nonlinear regression analysis was used to determine the IC50 values from a dose-response curve generated using GraphPad Prism 7.

The next assay deals with T3, PFKP (Homo sapiens, UniProt Q01813).
T3 construct: Flag; expressed in transfected cells; host or cells: HEK 293T, transient transfection, soluble lysate; cDNA clone 5180268 (Dharmacon)
T3 sequence (Q01813 1-784): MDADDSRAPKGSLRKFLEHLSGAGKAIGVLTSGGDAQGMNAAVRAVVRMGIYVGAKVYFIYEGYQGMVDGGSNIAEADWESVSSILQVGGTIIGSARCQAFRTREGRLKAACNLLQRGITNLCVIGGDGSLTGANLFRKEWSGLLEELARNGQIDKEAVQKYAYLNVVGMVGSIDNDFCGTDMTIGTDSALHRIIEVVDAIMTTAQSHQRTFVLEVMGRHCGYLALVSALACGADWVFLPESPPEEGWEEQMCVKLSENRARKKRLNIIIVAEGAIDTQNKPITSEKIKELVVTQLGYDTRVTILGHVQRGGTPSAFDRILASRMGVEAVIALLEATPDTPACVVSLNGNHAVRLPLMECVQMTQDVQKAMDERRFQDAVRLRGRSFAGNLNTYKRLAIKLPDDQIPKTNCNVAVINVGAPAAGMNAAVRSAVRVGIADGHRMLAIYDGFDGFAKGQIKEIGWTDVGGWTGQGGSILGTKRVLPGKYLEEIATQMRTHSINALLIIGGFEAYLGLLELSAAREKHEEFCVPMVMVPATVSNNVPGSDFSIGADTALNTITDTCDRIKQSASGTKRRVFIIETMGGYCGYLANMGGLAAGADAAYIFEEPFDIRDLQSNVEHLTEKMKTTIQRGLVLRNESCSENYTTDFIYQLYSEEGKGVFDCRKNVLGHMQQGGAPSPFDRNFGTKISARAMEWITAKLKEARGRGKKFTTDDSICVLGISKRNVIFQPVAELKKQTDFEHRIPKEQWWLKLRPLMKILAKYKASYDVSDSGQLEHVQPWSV
The assay can be described thus: competitive gel-based ABPP, apparent IC50. It counts as binding. The following applies: read-out: apparent IC50, blockade of probe labeling of recombinant PFKP. As to the method: as §3, §4

The next assay concerns the target T4, NUDT2 (Homo sapiens, UniProt P50583).
T4 construct: expressed in transfected cells; host or cells: HEK 293T, transient transfection, soluble lysate; synthesized gene (IDT)
Description: competitive gel-based ABPP, apparent IC50. Type of assay: binding. As to the method:
as §3, §4

T4 sequence (P50583 whole entry): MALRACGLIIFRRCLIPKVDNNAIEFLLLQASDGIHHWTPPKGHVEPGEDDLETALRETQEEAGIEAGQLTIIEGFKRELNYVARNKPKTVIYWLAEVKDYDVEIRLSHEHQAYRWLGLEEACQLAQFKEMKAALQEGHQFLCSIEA

On to `O=C(CCc1cn(-c2ccccc2)nc1-c1ccccc1)Oc1c(F)c(F)c(F)c(F)c1F` [fragment 19, Pentafluorophenyl 3-(1,3-diphenyl-1H-pyrazol-4-yl)propanoate], for which the IC50 at PNPO [1] was approximately 5 µM; on PNPO [3], 3 µM. The “inhibitory effect on K100R mutant of PNPO” value on PNPO [2] is given as “not observed”.
Turning to `O=C(Oc1c(F)c(F)c(F)c(F)c1F)C(c1ccccc1)c1ccccc1` [fragment 20, Pentafluorophenyl 2,2-diphenylacetate], the IC50 at PFKP was 2 µM.
Consider `COC(=O)NC(=NC(=O)OCC1c2ccccc2-c2ccccc21)n1cccn1` [fragment 49, N-Methoxycarbonyl-N′-9-fluorenylmethoxycarbonyl-pyrazole-1-carboxamidine], for which, on NUDT2 (FIG. 11G), the “blockade of probe 1-labeling of K89 in NUDT2” value is “quantitatively blocked”. In addition, at NUDT2 (gel-based ABPP, read-out: apparent IC50, blockade of probe labeling of NUDT2), the half-maximal inhibitory concentration (IC50) was 2 µM.

Usually IC50 stands for the concentration at which inhibition is half-maximal.
